Experimental data from patent publication US12318448B2, “Use of TLR agonist and anti-CD47 agent to enhance phagocytosis of cancer cells” (The Board of Trustees of the Leland Stanford Junior …, priority 2015, dated 2025).
One block for each molecule: values may come before it.

What was measured:
SW620 cells [1] = experiment: FACS-based phagocytosis assay, mouse BMDMs with SW620 target cells; format: cell-based, human; settings: for phagocytosis of tumor cells after treatment of macrophages with TLR agonist: SW620 (PBS-treated, Hu5F9-G4-treated or CD47KO), γc-/- or NSG mice, FIG. 6A-6B
Description: We performed phagocytosis assays by co-culturing mouse bone marrow-derived macrophages (BMDMs) and target human cancer cells to examine the efficacy of PrCR under different conditions. To induce phagocytosis, we blocked CD47 on a human colon cancer cell line (SW620) by either treating tumor cells with CD47 blocking antibodies or directly knocking it out.
(§1) Phagocytosis assay. FACS-based phagocytosis assays were performed to evaluate phagocytic abilities of macrophages. Macrophages were harvested after 6-8 days of differentiation and divided into FACS tubes or low-attachment 96-well plates, with 1-5×10^4 cells per well/tube. Target cells were added and mixed with macrophages, and incubated at 37° C. for 2 hrs with indicated conditions (antibody/drug treatment). For CD47 blockade, anti-CD47 (B6H12, BD Biosciences) or humanized anti-CD47 (Hu5F9-G4; provided by the CD47 disease team at Stanford University) antibodies were used. Cells were then incubated with PE cy7-conjugated anti-mouse F4/80 antibody to stain macrophages. After incubation, cells were washed with FACS buffer and resuspended with FACS buffer containing sytox blue to distinguish dead cells. Phagocytic index was examined by FACS analyses, and macrophages that phagocytosed target cells were F4/80+ and GFP+. Phagocytic index was calculated with the number of F4/80+GFP+ cells/divided by the number of F4/80+ cells. In each experiment, phagocytic indexes were normalized to the maximal indexes.
Alternatively, macrophages and target cells were mixed and cocultured in 24 well plates for 16-24 hrs with indicated conditions. Cells were collected from the plates by TrypLE and incubated with PE cy7-conjugated anti-mouse F4/80 antibody to stain for macrophages. After incubation, cells were washed with FACS buffer and resuspended with FACS buffer containing sytox blue and non-colored standard cells (293T cells were used as standard cells). Cells were then subjected to FACS analyses. Remaining target cells were normalized to standard cells (numbers of standard cells were known and equal in each sample) to evaluate the percentage of cells phagocytosed by macrophages during the incubation.

SW620 cells [2] = experiment: Phagocytosis assay, human PBMC-derived macrophages with SW620 target cells; format: cell-based; settings: SW620 Control IgG- or B6H12-treated; FIG. 10D
Description: The cells were examined by flow cytometry analyses. Remaining target cells were used to evaluate efficacy of phagocytosis, with less remaining target cells representing stronger phagocytosis. […] Error bars represent standard deviation (FIGS. 10A, 10C and 10D).
Human peripheral blood-derived macrophages were generated as previously described.
Phagocytosis assay. FACS-based phagocytosis assays were performed to evaluate phagocytic abilities of macrophages. […] Target cells were added and mixed with macrophages, and incubated at 37° C. for 2 hrs with indicated conditions (antibody/drug treatment). For CD47 blockade, anti-CD47 (B6H12, BD Biosciences) or humanized anti-CD47 (Hu5F9-G4; provided by the CD47 disease team at Stanford University) antibodies were used. Cells were then incubated with PE cy7-conjugated anti-mouse F4/80 antibody to stain macrophages. After incubation, cells were washed with FACS buffer and resuspended with FACS buffer containing sytox blue to distinguish dead cells. Phagocytic index was examined by FACS analyses, and macrophages that phagocytosed target cells were F4/80+ and GFP+. Phagocytic index was calculated with the number of F4/80+GFP+ cells/divided by the number of F4/80+ cells. In each experiment, phagocytic indexes were normalized to the maximal indexes.

calreticulin (CRT) [3] = experiment: Cell surface exposure of CRT on macrophages (cell surface biotinylation, flow cytometry); format: cell-based, mouse; settings: for cell surface CRT on macrophages, cell surface biotinylation assay: immunoblots, FIG. 3A; for cell surface exposure of CRT on macrophages, flow cytometry: TLR agonist treatment, FIG. 3B, 10B
Description: Flow cytometry Analysis. Flow cytometry analyses were performed using a BD LSRFortessa. For staining, 2.5×10^5-10^6 cells were incubated with indicated antibodies (1:50-1:200) in FACS buffer (PBS with 2% fetal bovine serum) on ice for 30 minutes. Cells were then washed with FACS buffer and subjected to FACS analyses. For staining of macrophages, cells were first treated with Fc receptor blockers or a high concentration of isotype IgG control (5-10 times of indicated antibodies) to block non-specific binding of antibodies caused by the interaction of Fc domain and Fc receptors on macrophages.
Cell surface biotinylation. […] Cells were incubated with NHS-SS-Biotin (0.5 mg/ml) for 1 hr in PBS (pH8.0), and then rinsed with quench buffer (20 mM Tris-HCl, 120 mM NaCl, pH7.4), 100 mM Glycine in PBS, and PBS. Cells were lysed in lysis buffer (20 mM Tris-HCl, pH7.4, 150 mM NaCl, 2 mM EDTA, supplemented with 1% Triton X-100, protease inhibitor cocktail and phosphatase inhibitor cocktail). Cell lysate was incubated with neutravidin agarose resin for 4 hr at 4° C., and the resin was washed using lysis buffer. Biotin-labeled proteins were eluted with lysis buffer containing 2% SDS and 100 mM DTT, and subjected to SDS-PAGE and immunoblotting. Intracellular protein GAPDH was used as a negative control to confirm that only cell surface proteins were labeled by NHS-SS-Biotin.

[4] = test system: HL60, Raji, PC3, MDA-MB-231 cells; experiment: Phagocytosis assay, mouse BMDMs with multiple hematopoietic and solid tumor cells; format: cell-based, human; settings: macrophages treated with TLR3, 4 and 7 agonists; FIGS. 6A-C and 7A-D
From the text: FIG. 7A-7D. Phagocytosis of HL60, Raji, PC-3, MDA-MB-231 is enhanced by TLR agonists. Phagocytosis assays showing TLR agonists enhanced phagocytosis of multiple human cancer cells, with different hematopoietic (HL60 and Raji) and solid tumor (PC3 and MDA-MB-231) cells (PBS- or Hu5F9-G4-treated) as target cells and BMDMs from NSG (HL60, Raji and PC3) or RAG2^−/−, γc^−/− (MDA-MB-231) mice. HL60: Promyelocytic leukemia; Raji: Burkitt's lymphoma; PC3: Prostate cancer; MDA-MB-231: Breast cancer. Error bars represent standard deviation (FIG. 7A-7D).
as §1

Btk = molecular target: T1, Btk (Mus musculus, UniProt P35991); experiment: Immunoblot of Btk phosphorylation in macrophages; format: cell-based; settings: treatment with TLR agonist, FIG. 2B
T1 construct: endogenous in cells; probably mouse bone-marrow-derived macrophages
T1 sequence (P35991 whole entry): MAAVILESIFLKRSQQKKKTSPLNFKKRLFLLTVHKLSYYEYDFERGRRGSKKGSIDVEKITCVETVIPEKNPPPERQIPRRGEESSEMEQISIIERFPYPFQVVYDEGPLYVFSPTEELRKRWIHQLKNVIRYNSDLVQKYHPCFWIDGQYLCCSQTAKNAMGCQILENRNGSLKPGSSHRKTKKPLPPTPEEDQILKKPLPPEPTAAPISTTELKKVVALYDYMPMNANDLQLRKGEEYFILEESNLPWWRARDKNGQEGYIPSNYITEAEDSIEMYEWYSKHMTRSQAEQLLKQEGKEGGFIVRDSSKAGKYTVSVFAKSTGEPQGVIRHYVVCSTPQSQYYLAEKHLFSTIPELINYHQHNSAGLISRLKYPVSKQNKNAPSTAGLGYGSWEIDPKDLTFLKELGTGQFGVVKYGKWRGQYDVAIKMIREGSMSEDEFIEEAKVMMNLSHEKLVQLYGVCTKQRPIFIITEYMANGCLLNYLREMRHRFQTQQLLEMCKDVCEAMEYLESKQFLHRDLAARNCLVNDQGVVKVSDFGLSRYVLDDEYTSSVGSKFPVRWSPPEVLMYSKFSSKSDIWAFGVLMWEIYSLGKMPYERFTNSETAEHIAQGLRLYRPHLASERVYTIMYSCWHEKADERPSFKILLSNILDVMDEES
From the text: FIG. 2A-2D. […] Error bars represent standard deviation (FIGS. 2A, 2C and 2D).

calreticulin (CRT) [5] = experiment: CRT phosphorylation in J774 cells expressing myc-CRT (immunoprecipitation, immunoblot); format: cell-based, mouse; settings: myc-tagged CRT, FIG. 10E
Description: Immunoprecipitation. Calreticulin was immunoprecipitated from J774 cells expressing myc-CRT. J774 cells were plated 12 hrs before immunoprecipitation. Cells were treated with imiquimod (1 ug/ml) at indicated time points, and washed with pre-chilled PBS containing phosphatase inhibitors on ice. Cells were then lysed in lysis buffer (20 mM Tris-HCl, pH7.4, 150 mM NaCl, 2 mM EDTA, supplemented with 1% Triton X-100, protease inhibitor cocktail and phosphatase inhibitor cocktail). Cell lysate was incubated for 1 hr with GammaBind Plus Sepharose for preclearance and 4 hr with anti-myc antibodies at 4° C. GammaBind sepharose was added to cell lysate and incubated for 1 hr at 4° C. Beads were washed with lysis buffer. Proteins were eluted with lysis buffer containing 2% SDS and 100 mM DTT, and subjected to SDS-PAGE and immunoblotting. To detect phosphorylated CRT, the blot was incubated with biotin-labeled pT66 anti-p-Tyrosine antibody and HRP-conjugated streptavidin.

[6] = test system: PC3 prostate cancer cells; experiment: Flow cytometry of dissociated PC3 tumor specimens from treated NSG mice; format: in vivo, mouse; settings: PC3 tumors in NSG mice; FIG. 8B
Description: Tumor engraftment and treatment. PC3 cells (human prostate cancer) were suspended in F-12K medium with 25% matrix matrigel, and injected subcutaneously on the back of 6-10 week NSG mice. Mice were treated with PBS or Hu5F9-G4 antibody by intraperitoneal injection 2 weeks after engraftment, and PBS or TLR agonists (20 μg of Poly (I:C) HMW and 20 μg of LPS) by intratumoral injection 7 weeks after engraftment when tumors reached 100 mm^3.
Tumor dissociation and FACS analyses. Tumor specimens were collected from the mice, minced to pieces smaller than 1 mm in diameter and dissociated in medium 199 with TM enzymes and DNAase at 37° C. until single-cell suspension was achieved. The cells were treated with ACK lysing buffer for lysis of red blood cells, washed twice with HBSS, filtered through 70 μm cell strainer and subjected to flow cytometry analyses. The cells were stained with anti-CD31 antibody, anti-Gr-1 antibody and sytox blue to exclude endothelial cells, neutrophils and dead cells, and with anti-F4/80 antibody for macrophages.

Molecule: C=CC(=O)N1CCC[C@@H](n2nc(-c3ccc(Oc4ccccc4)cc3)c3c(N)ncnc32)C1 [ibrutinib, 1-[(3R)-3-[4-amino-3-(4-phenoxyphenyl)pyrazolo[3,4-d]pyrimidin-1-yl]piperidin-1-yl]prop-2-en-1-one]
basal level phagocytosis of cancer cells (resting macrophages) (SW620 cells [1]; Fc-dependent and -independent, 16 hr coculture, BMDMs from RAG2-/-, γc-/- mice, FIG. 10A): inhibitory effect
phagocytosis induced by TLR agonists, combined with inhibitor (SW620 cells [1]; SW620 (control or CD47KO), BMDMs from RAG2-/-, γc-/- mice, FIG. 2A): significantly attenuated
time to maximal inhibition of phagocytosis on blockade of Btk (SW620 cells [1]; SW620 CD47KO target cells, BMDMs from NSG mice, FIG. 2D): ≤ 1 h
phagocytosis of SW620 cells by human PBMC-derived macrophages (SW620 cells [2]): inhibited phagocytosis
imiquimod-induced cell surface expression of CRT on macrophages with ibrutinib (calreticulin (CRT) [3]; imiquimod+ibrutinib, flow cytometry, FIG. 10B): reversed
cell surface CRT on macrophages, cell surface biotinylation assay (calreticulin (CRT) [3]): decreased

Btk phosphorylation in macrophages (Btk): stimulated Btk to be phosphorylated
Molecule: CC(C)Cn1cnc2c(N)nc3ccccc3c21 [imiquimod, Imiquimod]
phagocytosis of tumor cells after treatment of macrophages with TLR agonist (SW620 cells [1]; BMDMs from RAG2-/-): promoted phagocytosis
duration of Btk-activation for maximal phagocytic ability of macrophages (SW620 cells [1]; SW620 CD47KO target cells, BMDMs from NSG mice, FIG. 2C): 16 h
phagocytosis of multiple hematopoietic and solid tumor cells [4]: dramatically enhanced
cell surface exposure of CRT on macrophages, flow cytometry (calreticulin (CRT) [3]): Increased cell surface exposure
cell surface exposure of CRT on macrophages, flow cytometry (calreticulin (CRT) [3]; listed as Imiquimod): increased cell surface expression
cell surface CRT on macrophages, cell surface biotinylation assay (calreticulin (CRT) [3]): increased
time of treatment to maximal level of CRT phosphorylation (calreticulin (CRT) [5]): 30 min

Molecule: lipopolysaccharide [LPS]
phagocytic ability of macrophages (SW620 cells [1]; SW620 (PBS- or Hu5F9-G4-treated), BMDMs from NSG mice, flow cytometry plots, FIG. 6C): strongly enhanced
phagocytosis of tumor cells after treatment of macrophages with TLR agonist (SW620 cells [1]; BMDMs from RAG2-/-): promoted phagocytosis
phagocytosis of multiple hematopoietic and solid tumor cells [4]: dramatically enhanced
Btk phosphorylation in macrophages (Btk): stimulated Btk to be phosphorylated
cell surface exposure of CRT on macrophages, flow cytometry (calreticulin (CRT) [3]): Increased cell surface exposure

Btk phosphorylation in macrophages (Btk): stimulated Btk to be phosphorylated
Molecule: polyinosinic-polycytidylic acid-high molecular weight [Poly (I:C) HMW]
phagocytosis of tumor cells after treatment of macrophages with TLR agonist (SW620 cells [1]; BMDMs from RAG2-/-): promoted phagocytosis
phagocytosis of multiple hematopoietic and solid tumor cells [4]: dramatically enhanced
cell surface exposure of CRT on macrophages, flow cytometry (calreticulin (CRT) [3]): Increased cell surface exposure

B1: B6H12: anti-CD47 antibody (B6H12, BD Biosciences) (antibody, V domains shown)
VH: EVQLVESGGDLVKPGGSLKLSCAASGFTFSGYGMSWVRQTPDKRLEWVATITSGGTYTYYPDSVKGRFTISRDNAKNTLYLQIDSLKSEDTAIYFCARSLAGNAMDYWGQGTSVTVSS
VL: DIVMTQSPATLSVTPGDRVSLSCRASQTISDYLHWYQQKSHESPRLLIKFASQSISGIPSRFSGSGSGSDFTLSINSVEPEDVGVYYCQNGHGFPRTFGGGTKLEIK
phagocytosis of SW620 cells on blockade of CD47 (SW620 cells [1]; BMDMs from RAG2-/-, γc-/- mice, FIG. 1A): induced phagocytosis

B2: Hu5F9-G4: humanized anti-CD47 antibody provided by the CD47 disease team at Stanford University (antibody, chains of the INN, looked up, V domains shown)
VH: QVQLVQSGAEVKKPGASVKVSCKASGYTFTNYNMHWVRQAPGQRLEWMGTIYPGNDDTSYNQKFKDRVTITADTSASTAYMELSSLRSEDTAVYYCARGGYRAMDYWGQGTLVTVSS
VL: DIVMTQSPLSLPVTPGEPASISCRSSQSIVYSNGNTYLGWYLQKPGQSPQLLIYKVSNRFSGVPDRFSGSGSGTDFTLKISRVEAEDVGVYYCFQGSHVPYTFGQGTKLEIK
macrophages (a1+a2) in tumor specimens [6]: 46.26%
macrophages that had phagocytosed tumor cells a2 (GFP+F4/80+), ongoing phagocytosis [6]: 39.3%
tumor cells a4 (GFP+F4/80-) in tumor specimens [6]: 40%
